Results on one compound are retold here after patent US20150173370A1, “S[…] CONTROL FROM COMBINATIONS OF 2,4-D-CHOLINE, GLYPHOSATE, AND GLUFOSINATE” (Dow AgroSciences LLC, priority 2013, published 2015).

Several values for one entry are separate records, joined by “and”; a condition that tells them apart may be missing. Equal values may be shown once.

The subject of data set [1] is AAD12 Soybean (GLXMA). In words: Field trials, crop tolerance (% visual chlorosis). It is filed as in vivo, Glycine max L. (soybean). How it is done:
Field trials were conducted under agricultural field conditions in multiple states in the United States, including but not limited to Arkansas, Iowa, Illinois, Indiana, Kansas, Minnesota, Mississippi, Missouri, New York, Tennessee and Wisconsin. Trials were established as RCB (randomized complete block) design, with 3-4 replicates per treatment, and plot sizes varying from 5-10 feet (ft) wide by 12-30 ft long. Treatments were applied with small plot backpack sprayers, using pressurized carbon dioxide (CO2) as propellant. Pressure varied from 17-52 pounds per square inch (psi), with spray tips typically of a Flat Fan type applying water diluent at 15 gallons per acre (GPA). Boom sizes varied from 5-11 ft in width. Treatments were applied to soybean, cotton, corn or fallow crop land. Weed sizes varied, but all treatments were applied as post-emergence treatments to weeds from 2 leaf to 2 tiller growth stages varying from 3 to 17 inches in height. The weed spectrum included, but was not limited to, Amaranthus palmeri S. Wats. (Palmer amaranth, AMAPA), Ambrosia trifida L. (giant ragweed, AMBTR), Conyza canadensis (L.) Cronq. (horseweed, ERICA) and Salsola tragus L. (Russian thistle, SASKR). […]
However, the experiments described herein were performed such that active ingredients A and B were combined and only the efficacy of the combination was determined. […]

Data set [2] concerns AAD12 Soybean (GLXMA). In words: Field trials, crop tolerance (% visual necrosis). It is filed as in vivo, Glycine max L. (soybean). How it is done:
Field trials were conducted under agricultural field conditions in multiple states in the United States, including but not limited to Arkansas, Iowa, Illinois, Indiana, Kansas, Minnesota, Mississippi, Missouri, New York, Tennessee and Wisconsin. Trials were established as RCB (randomized complete block) design, with 3-4 replicates per treatment, and plot sizes varying from 5-10 feet (ft) wide by 12-30 ft long. Treatments were applied with small plot backpack sprayers, using pressurized carbon dioxide (CO2) as propellant. Pressure varied from 17-52 pounds per square inch (psi), with spray tips typically of a Flat Fan type applying water diluent at 15 gallons per acre (GPA). Boom sizes varied from 5-11 ft in width. Treatments were applied to soybean, cotton, corn or fallow crop land. Weed sizes varied, but all treatments were applied as post-emergence treatments to weeds from 2 leaf to 2 tiller growth stages varying from 3 to 17 inches in height. The weed spectrum included, but was not limited to, Amaranthus palmeri S. Wats. (Palmer amaranth, AMAPA), Ambrosia trifida L. (giant ragweed, AMBTR), Conyza canadensis (L.) Cronq. (horseweed, ERICA) and Salsola tragus L. (Russian thistle, SASKR).
Glyphosate-, 2,4-D- and glufosinate-tolerant soybeans, corn or cotton comprising genes for tolerance for each herbicide as described above were used in all trials either as a breeding stack of one to three herbicide-tolerant events or as a molecular stack where all three herbicide tolerance traits were transformed into a single event.
The 2,4-D-choline salt plus glyphosate premix formulation was a 400 g ae/L SL containing 195 g ae/L 2,4-D-choline salt and 205 g ae/L glyphosate-dimethylammonium (DMA) salt. […] All treatments were mixed in water at appropriate formulated product rates to achieve the desired rates as shown based on a unit area of application (hectare). Treatments were rated at 1 to 28 days after application (DAA) as compared to the untreated control plants. The trial sites had naturally occurring populations of weeds. The treated plots and control plots were rated blind at various intervals after application.
Colby's equation was used to determine the herbicidal effects expected from the mixtures (Colby, S. R. Calculation of the synergistic and antagonistic response of herbicide combinations. Weeds 1967, 15, 20-22). A t-test (alpha=0.05) between Colby predictions and observed combinations was used to test for significant differences indicating synergy or antagonism using replicate data.
However, the experiments described herein were performed such that active ingredients A and B were combined and only the efficacy of the combination was determined. As such, Colby's equation simplifies to
Z=observed efficacy of a combination of active ingredient A (2,4-D-choline) and active ingredient B (glyphosate-DMA) at the same concentration as used in the mixture;

Turning to `CP(=O)(O)CCC(N)C(=O)O` (stereo not shown) [Glufosinate-Ammonium, ammonium (3-amino-3-carboxypropyl)(methyl)phosphinate], the “Mean % Visual Chlorosis” value is 8.5% and 10.0% in the data set on AAD12 Soybean (GLXMA) [1] (10 DAA, 1084 g ae/ha alone); 5.8% with AAD12 Soybean (GLXMA) [1] (14 DAA, 542 g ae/ha alone). Further, the “Mean % Visual Necrosis” value in the data set with AAD12 Soybean (GLXMA) [2] (2 DAA, 1084 g ae/ha alone) was 25.0%; in the data set with AAD12 Soybean (GLXMA) [2] (3 DAA, 542 g ae/ha alone), 0.0%; with AAD12 Soybean (GLXMA) [2] (3 DAA, 822 g ae/ha alone) it was 0.8%; with AAD12 Soybean (GLXMA) [2] (3 DAA, 1084 g ae/ha alone) it was 3.0% and 8.5% and 1.5% and 1.3%; in the data set with AAD12 Soybean (GLXMA) [2] (5 DAA, 542 g ae/ha alone), 2.8%; with AAD12 Soybean (GLXMA) [2] (7 DAA, 542 g ae/ha alone), 0.5% and 0.3%. Also, the “Mean % Visual Necrosis” value in the data set on AAD12 Soybean (GLXMA) [2] (7 DAA, 822 g ae/ha alone) is 0.8% and 0.0% and 10.0% and 1.0% and 1.3%; with AAD12 Soybean (GLXMA) [2] (7 DAA, 1084 g ae/ha alone) it was 3.3% and 1.3% and 10.0% and 2.0% and 2.3%; with AAD12 Soybean (GLXMA) [2] (8 DAA, 822 g ae/ha alone), 7.5%; in the data set on AAD12 Soybean (GLXMA) [2] (8 DAA, 1084 g ae/ha alone) it was 10.0% and 12.5% and 6.5%; with AAD12 Soybean (GLXMA) [2] (9 DAA, 822 g ae/ha alone) it was 6.0%; in the data set on AAD12 Soybean (GLXMA) [2] (10 DAA, 1084 g ae/ha alone) it was 2.3%. Also, the “Mean % Visual Necrosis” value in the data set on AAD12 Soybean (GLXMA) [2] (14 DAA, 822 g ae/ha alone) was 0.0% and 1.0%; in the data set on AAD12 Soybean (GLXMA) [2] (14 DAA, 1084 g ae/ha alone), 5.0% and 2.0%; with AAD12 Soybean (GLXMA) [2] (16 DAA, 542 g ae/ha alone), 3.0%; in the data set with AAD12 Soybean (GLXMA) [2] (16 DAA, 822 g ae/ha alone) it was 5.0%; in the data set on AAD12 Soybean (GLXMA) [2] (16 DAA, 1084 g ae/ha alone), 1.8%.
